Reference: patent US10195245B2, “Tetrapeptides derived from human C-X-C chemokines useful for treatment of various skin conditions” (Helix Biomedix, Inc., priority 2013, dated 2019)
Entries after “also recorded” stand apart in the source; their conditions may differ. Marks after values point to notes of the source that are not given here. Where a SMILES comes first, the peptide text is derived from it.

Key:
Format in all cases: cell-based
[1] = test system: SOR-300-FT human psoriasis tissue construct; experiment: qPCR gene expression on SOR-300-FT psoriasis tissue
Excerpt: SOR-300-FT, developed by MatTek Corporation (Ashland Mass.), is a highly differentiated in vitro psoriasis tissue comprised of normal, human-derived keratinocytes and psoriatic fibroblasts Morphologically, the tissue is of uniform thickness and it expresses increased levels of hyperproliferated cells as well as pro-inflammatory markers such as psoriasin, elafin, human beta-defensin-2, and LL-37 etc (Ayehunie et al., 2012). The pro-inflammatory condition of the tissue prompts us to test the inventive peptides to see if they modulate the inflammatory response. Due to the high cost of the tissue model, a representative peptide SEQ ID NO 1, HB2233, was selected as a proof of concept study using SOR-300-FT tissue model. The SOR-300-FT tissues were treated with HB2233 in duplicate at 200 μg/ml. Total 12 gene markers associated with psoriasis condition are studied. […] Both HB2233 and calcipotriol down-regulate Ki67 expression which is responsible for the hyperproliferation and early maturation of keratinocytes in psoriasis skin.
SOR-300-FT™ tissues were transferred to 6-well plates containing 0.9 ml of pre-warmed assay medium and equilibrated to standard culture conditions (37° C., 5% CO2) for 1 hour. After the 1 hr equilibration, the tissues were re-fed with fresh medium as follow: 1) for the 24 hr time point, tissues were feed with 0.9 ml of medium and 2) for time points >24 hr, tissues were feed with 5 ml of culture medium by placing the cell culture inserts on top of the washers (Part # EPI-WSHR, MatTek Corporation). Next, 50 μl of the test articles were applied topically to the psoriatic tissues (n=3) and the test article was added to the culture medium at the 3 concentrations chosen by the Sponsor. At times 24, and 48 hours: a) the tissues were rinsed topically 3× with 300-400 μL of PBS, b) the inserts containing the tissues were held tightly with sterile forceps and the test article was rinsed gently by immersing the insert into PBS and decant medium from insert, and c) fresh test article was re-applied to the tissue immediately after rinsing and decanting (50 μL topically). Analysis was performed at t=72 hr (3× repeat applications). cDNA was generated using the Qiagen RT2 First Strand Kit (cat#330401). Relative gene expression was measured using Qiagen RT2 SYBR Green qPCR Mastermix (cat#330502) and Qiagen RT2 primers. Analysis was carried out using Bio-Rad CFX software.

[2] = MTT cytotoxicity test on keratinocytes; conditions: human, normal human epidermal keratinocytes, 50 to 500 μg/ml tested
Protocol: C-X-C chemokines are well known for their chemotactic activity toward many cell types. […] The experiment was performed in the serum-free keratinocyte growth medium in the absence of supplement in order to restrain cells proliferation. The wounded area was examined by phase-contrast microscopy at the indicated times. […] At 20 μg/ml, the percentage of wound closure induced by SEQ IDs 1, 2, 3, 4, 5, 6 and 7 ranges from 165% to 240% compared to that of PBS treated which was taken as 100% (Table 1). […] To confirm that the peptides are not toxic to the keratinocytes at the concentrations tested for scratch wound closure all peptides were subjected to the MTT cytotoxicity test. None of the peptides were cytotoxic to normal skin keratinocyte in vitro after 24 hrs incubation at concentrations up to 500 ug/ml.
To make sure the peptides are not cytotoxic to the cells, normal human epidermal keratinocytes were seeded to a 96-well plate. The plate was incubated at 37° C. in the presence of 5% CO2 to allow the cells to grow to >95% confluent. Peptides are diluted into stock solutions at concentrations of 50, 100, 200, and 500 μg/ml. The cell culture media are replaced with fresh media containing peptides at various concentrations then incubated at 37° C. and 5% CO2 for 24 hr. At the end of treatment the cell viability was measured using MTT assay kit purchased from ATCC (Manassas Va.).

[3] = test system: human umbilical vein endothelial cells (HUVEC); experiment: In vitro angiogenesis assay (capillary tube formation); design: key to Promote tube formation 3 hrs / Promote tube formation 5 hrs: 0: Individual cells, well separated; 1: Cells begin to migrate and align themselves; 2: Capillary tubes visible, no sprouting; 3: Sprouting of new capillary tubes visible; 4: Closed polygons begin to form; 5: Complex mesh like structures develop
Excerpt: Angiogenesis, the formation of new capillaries from the pre-existing vascular network, is an essential step of wound repair. The peptides generated in the current invention, SEQ ID NOs 1-7, also stimulate capillary tube formation. The in vitro angiogenesis assay uses human umbilical vein endothelial cells (HUVEC) to measurer a series of events that lead to forming new capillary tubes. Upon induction, the HUVEC undergoes migration to align then sprouting from individual cells. The sprouting event leads to formation of new capillary tubes which further develop to form closed polygons. Eventually a complex mesh like structure is developed. Human cathelicidin peptide, LL-37, is a well-studied example to promote angiogenesis. It is used as positive control in the assessment. […] Compared to LL-37, SEQ ID NOs.
The angiogenesis assay was performed using the In Vitra Angiogenesis Assay Kit purchased from Millipore. Briefly, matrix layer was prepared with ECMATRIX™ solution according to the manufacturer's instructions. The human umbilical vein endothelial cells (HUVEC) (ATCC, Manassas, Va.) were cultured in complete F12K medium (ATCC, Manassas, Va.) supplemented with 0.1 mg/ml of heparin (Sigma-Aldrich), 30 ug/ml of ECGS (Sigma-Aldrich) and 10% fetal bovine serum (ATCC, Manassas, Va.). The cells were harvested and resuspended in complete media. The peptide was mixed with cells at approximately 5×10^3-1×10^4 cells per well in a 96-well plate prior to seeding cells onto the surface of the polymerized ECMATRIX™ solution. The plate was incubated at […], 5% CO2 for up to 9-12 hr. Tube formation was inspected under an inverted light microscope periodically and pictures were taken at 3 and 5 hr intervals and assigned a numerical value to each pattern as shown below.

[4] = test system: S. aureus LTA induced IL-6 expression on human skin keratinocytes; experiment: Blocking LTA induced IL-6 expression (ELISA); conditions: LTA 10 ug/ml pre-incubated with peptide 50 μg/ml 30 min, 24 hrs
Excerpt: The Gram-positive cell wall component peptidoglycan (PGN) is well known to stimulate pro-inflammatory cytokine expression. Lipoteichoic acid (LTA) is the key molecule in PGN that causes a concentration- and time-dependent increase in pro-inflammatory signals including nitric oxide synthase (iNOS), cyclooxygenase-2 (COX-2), IL-1 beta, TNF-alpha and IL-6 up-regulation (Lin et al., 2010). We therefore pretreated LTA with the inventive peptides and then assess the IL-6 stimulatory activity upon contact with human skin keratinocytes. […] It is very likely that the positively charged residues of the tetrapeptides bind to the negatively charged LTA thus blocking the interaction of LTA with its receptors. This is significant as bacterial cell wall components have been implicated in inflammatory skin conditions such as acne, rosacea, atopic dermatitis etc.
S. aureus LTA induced IL-6 stimulation on human epidermal keratinocytes. Human keratinocytes were grown to >80% confluence in serum free keratinocyte cultural media. S. aureus LTA 10 ug/ml was pre-incubated with each peptide (50 μg/ml) at room temperature for 30 min then the mixture was transferred to keratinocyte culture. The treatment was allowed for 24 hrs. The supernatant was removed. […]

[5] = 72 hr, HB2233 at 200 μg/ml, listed as calcipotriol

For `C=C1/C(=C\C=C2/CCC[C@]3(C)[C@@H]([C@H](C)/C=C/[C@@H](O)C4CC4)CC[C@@H]23)C[C@@H](O)C[C@@H]1O` [Calcipotriol, calcipotriol], the “downregulation of HBD-2” value ([1]; 72 hr treatment, qPCR) was 9.0 fold, the downregulation of psoriasin ([1]; 72 hr treatment, qPCR) was 2.3 fold and the “Fold change in gene expression: Calgranulin C” value ([1]; 72 hr, HB2233 at 200 μg/ml) was −1.3 fold. The “Fold change in gene expression: ENA-78” value ([1]; 72 hr, HB2233 at 200 μg/ml) was 1.6 fold, the “Fold change in gene expression: Elafin” value ([1]; 72 hr, HB2233 at 200 μg/ml) was −1.4 fold and the “Fold change in gene expression: GRO alpha” value ([1]; 72 hr, HB2233 at 200 μg/ml) was 1.3 fold. For the same molecule, the “Fold change in gene expression: HBD-2” value ([1]; 72 hr, HB2233 at 200 μg/ml) was −9.0 fold, the “Fold change in gene expression: IL-8” value ([1]; 72 hr, HB2233 at 200 μg/ml) was 1.3 fold and the “Fold change in gene expression: Ki-67” value ([1]; 72 hr, HB2233 at 200 μg/ml) was −1.1 fold. The “Fold change in gene expression: LL-37” value ([1]; 72 hr, HB2233 at 200 μg/ml) was 5.1 fold, the “Fold change in gene expression: P63” value ([1]; 72 hr, HB2233 at 200 μg/ml) was −1.4 fold and the “Fold change in gene expression: Psoriasin” value ([1]; 72 hr, HB2233 at 200 μg/ml) was −2.3 fold. For the same molecule, the “Fold change in gene expression: SLPI” value ([1]; 72 hr, HB2233 at 200 μg/ml) was 2.1 fold, the “Fold change in gene expression: Transglutaminase” value ([1]; 72 hr, HB2233 at 200 μg/ml) was 1.5 fold and the “Fold change in gene expression: ENA-78” value [1, 5] was “does not seem to affect”. For the same molecule, the “Fold change in gene expression: GRO alpha” value [1, 5] was “does not seem to affect” and the “Fold change in gene expression: Ki-67” value [1, 5] was “down-regulate”.

With `CC[C@H](C)[C@H](N)C(=O)N[C@@H](CCC(=O)O)C(=O)N[C@@H](CCCCN)C(=O)N[C@@H](CCSC)C(=O)O` [HB2233, IEKM] (H-IEKM-OH) the CC50 at 24 h [2] was > 500 µg/mL.

For `CC(C)[C@H](N)C(=O)N[C@@H](CCC(=O)O)C(=O)N[C@@H](CCCCN)C(=O)N[C@@H](Cc1ccccc1)C(=O)O` [HB2267, VEKF] (H-VEKF-OH; N-terminus and C-terminus assumed), the CC50 at 24 h [2] was > 500 µg/mL.

In the case of `CC[C@H](C)[C@H](N)C(=O)N[C@@H](CCC(=O)O)C(=O)N[C@@H](CCCCN)C(=O)N[C@H](C(=O)O)[C@@H](C)CC` [HB2270, IEKI] (H-IEKI-OH; N-terminus and C-terminus assumed), the CC50 at 24 h [2] is reported as > 500 µg/mL.

For `CC[C@H](C)[C@H](N)C(=O)N[C@@H](CCC(N)=O)C(=O)N[C@@H](CCCCN)C(=O)N[C@H](C(=O)O)[C@@H](C)CC` [HB2271, IQKI] (H-IQKI-OH; N-terminus and C-terminus assumed), the CC50 at 24 h [2] was > 500 µg/mL.

In the case of `CC[C@H](C)[C@H](N)C(=O)N[C@@H](CCCCN)C(=O)N[C@@H](CCCCN)C(=O)N[C@@H](Cc1c[nH]c2ccccc12)C(=O)O` [HB2272, IKKW] (H-IKKW-OH; N-terminus and C-terminus assumed), the CC50 at 24 h [2] is reported as > 500 µg/mL.

For `CC[C@H](C)[C@H](N)C(=O)N[C@@H](CCCCN)C(=O)N[C@@H](CCCCN)C(=O)N[C@H](C(=O)O)C(C)C` [HB2273, IKKV] (H-IKKV-OH; N-terminus and C-terminus assumed), the CC50 at 24 h [2] was > 500 µg/mL.

For `CC[C@H](C)[C@H](N)C(=O)N[C@@H](CCCCN)C(=O)N[C@@H](CCCCN)C(=O)N[C@@H](CC(C)C)C(=O)O` [HB2274, IKKL] (H-IKKL-OH; N-terminus and C-terminus assumed), the CC50 at 24 h [2] was > 500 µg/mL.

With “LL-37 (LLGDFFRKSKEKIGKEFKRIVQRIKDFLRNLVPRTES; Antibacterial peptide LL-37; UniProt P49913 134-170, looked up) [Human cathelicidin peptide, used as positive control to promote angiogenesis]” the “capillary tube formation on HUVEC (in words)” value ([3]; 3 and 5 hr treatment) was “sprouting of new capillary tubes becomes visible just after 3 hr; also recorded: After 5 hr treatment with LL-37, the closed polygons are formed; also recorded: also stimulate angiogenesis”, the “Promote tube formation 3 hrs” value ([3]; 3 hrs, values ≥3 considered significant induction of angiogenesis) was 3* and the “Promote tube formation 5 hrs” value ([3]; 5 hrs, values ≥3 considered significant induction of angiogenesis) was 4*.

For Lipoteichoic acid [LTA alone], the “IL-6 expression (arbitrary)” value [4] was 1.248 arbitrary.
